ChEMBL document CHEMBL4616632, “Discovery of Cyclic Boronic Acid QPX7728, an Ultrabroad-Spectrum Inhibitor of Serine and Metallo-β-lactamases” (J Med Chem, 2020)

What was measured:
Klebsiella pneumoniae [1] = experiment: Inhibition of Klebsiella pneumoniae KP1054 VIM-1 assessed as minimum concentration of compound required to reduce the MIC of biapenem to 1 ug/ml
Klebsiella pneumoniae [2] = experiment: Inhibition of Klebsiella pneumoniae KP1009 CTX-M-15 assessed as minimum concentration of compound required to reduce the MIC of aztreonam to 4 ug/ml
Escherichia coli [3] = experiment: Inhibition of Escherichia coli KP308 SHV-5 assessed as minimum concentration of compound required to reduce the MIC of aztreonam to 4 ug/ml
Enterobacter cloacae = experiment: Inhibition of Enterobacter cloacae ECL1002 AmpC assessed as minimum concentration of compound needed to reduce the MIC of aztreonam to 4 ug/ml
[4] = target: Beta-lactamase (Klebsiella pneumoniae) (UniProt Q93LQ9); experiment: Inhibition of Klebsiella pneumoniae KP1004 KPC-2 assessed as minimum concentration of compound needed to reduce the MIC of aztreonam to 4 ug/ml
Chain of Beta-lactamase (Klebsiella pneumoniae) (Q93LQ9 as listed by the source): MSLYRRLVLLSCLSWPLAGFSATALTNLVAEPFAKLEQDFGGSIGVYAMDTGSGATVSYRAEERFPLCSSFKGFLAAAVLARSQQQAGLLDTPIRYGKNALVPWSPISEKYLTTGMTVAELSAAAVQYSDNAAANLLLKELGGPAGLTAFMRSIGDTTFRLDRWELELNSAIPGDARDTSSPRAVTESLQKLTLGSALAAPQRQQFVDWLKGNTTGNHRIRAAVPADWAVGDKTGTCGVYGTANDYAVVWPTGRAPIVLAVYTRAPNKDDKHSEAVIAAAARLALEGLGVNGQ

Escherichia coli [5] = experiment: Inhibition of Escherichia coli EC302 TEM-10 assessed as minimum concentration of compound needed to reduce the MIC of aztreonam to 4 ug/ml
Klebsiella pneumoniae [6] = experiment: Inhibition of Klebsiella pneumoniae KP1081 NDM-1 assessed as minimum concentration of compound required to reduce the MIC of biapenem to 1 ug/ml
Pseudomonas aeruginosa = experiment: Inhibition of Pseudomonas aeruginosa PAM 2035 AmpC assessed as minimum concentration of compound needed to reduce the MIC of aztreonam to 4 ug/ml
Klebsiella pneumoniae [7] = experiment: Inhibition of Klebsiella pneumoniae KP1160 IMP-26 assessed as minimum concentration of compound needed to reduce the MIC of meropenem to 1 ug/ml

SMILES | MEC (Klebsiella pneumoniae [1]) | MEC (Klebsiella pneumoniae [2]) | MEC (Escherichia coli [3]) | MEC (Enterobacter cloacae) | MEC [4] | MEC (Escherichia coli [5]) | MEC (Klebsiella pneumoniae [6]) | MEC (Pseudomonas aeruginosa) | MEC (Klebsiella pneumoniae [7])
O=C(O)c1cccc2c1OB(O)[C@@H](Sc1ncccn1)C2 | 20 µg/mL | > 20 µg/mL | > 20 µg/mL | > 20 µg/mL | > 20 µg/mL | > 20 µg/mL | 10 µg/mL |  | 
O=C(O)c1cccc2c1OB(O)[C@@H](Sc1c[nH]nn1)C2 | 0.6 µg/mL | > 20 µg/mL | 5 µg/mL | > 20 µg/mL | > 20 µg/mL | > 20 µg/mL | 0.3 µg/mL |  | 
CO[C@H]1Cc2cccc(C(=O)O)c2OB1O | 0.16 µg/mL | 10 µg/mL | 2.5 µg/mL | 2.5 µg/mL | 0.3 µg/mL | 20 µg/mL | 0.6 µg/mL |  | 
Nn1cnnc1S[C@H]1Cc2cccc(C(=O)O)c2OB1O | 0.3 µg/mL | 10 µg/mL | 10 µg/mL | 5 µg/mL | 5 µg/mL | > 20 µg/mL | 0.16 µg/mL |  | 
O=C(O)c1c(F)ccc2c1OB(O)[C@@H](Sc1nncs1)C2 | 1.25 µg/mL | 10 µg/mL | 0.3 µg/mL | 5 µg/mL | 2.5 µg/mL | 5 µg/mL | 0.6 µg/mL | 20 µg/mL | 20 µg/mL
NC(=O)CS[C@H]1Cc2cccc(C(=O)O)c2OB1O | 2.5 µg/mL | > 10 µg/mL | > 10 µg/mL | > 10 µg/mL | 5 µg/mL | > 10 µg/mL | 0.6 µg/mL |  | 
Nc1nnc(S[C@H]2Cc3ccc(OCC(F)F)c(C(=O)O)c3OB2O)s1 | 0.3 µg/mL | > 20 µg/mL | > 20 µg/mL | > 20 µg/mL | 10 µg/mL | > 20 µg/mL | 1.25 µg/mL | 20 µg/mL | 1.25 µg/mL
O=C(O)c1c(OCC2CC2)ccc2c1OB(O)[C@@H](Sc1nncs1)C2 | 0.16 µg/mL | > 20 µg/mL | 10 µg/mL | > 20 µg/mL | > 20 µg/mL | 20 µg/mL | 1.25 µg/mL | 20 µg/mL | 0.3 µg/mL
Cn1cnnc1S[C@H]1Cc2cccc(C(=O)O)c2OB1O | < 0.3 µg/mL | > 20 µg/mL | > 20 µg/mL | > 20 µg/mL | > 20 µg/mL | > 20 µg/mL | < 0.3 µg/mL |  | 
O=C(O)c1c(OC(F)F)ccc2c1OB(O)[C@@H](Sc1nncs1)C2 | 1.25 µg/mL | 20 µg/mL | 2.5 µg/mL | > 20 µg/mL | 5 µg/mL | 20 µg/mL | 1.25 µg/mL | 20 µg/mL | 20 µg/mL
Nc1nnc(S[C@H]2Cc3cccc(C(=O)O)c3OB2O)s1 | 0.16 µg/mL | > 10 µg/mL | 5 µg/mL | > 10 µg/mL | 10 µg/mL | > 10 µg/mL | 0.3 µg/mL |  | 
Nc1nnc(S[C@H]2Cc3cccc(C(=O)O)c3OB2O)[nH]1 | < 0.3 µg/mL | > 20 µg/mL | > 20 µg/mL | > 20 µg/mL | > 20 µg/mL | > 20 µg/mL | < 0.3 µg/mL |  | 
CSCCOc1ccc2c(c1C(=O)O)OB(O)[C@@H](Sc1nncs1)C2 | 1.25 µg/mL | > 20 µg/mL | 10 µg/mL | > 20 µg/mL | 20 µg/mL | > 20 µg/mL | 2.5 µg/mL | 10 µg/mL | 0.6 µg/mL
CS[C@H]1Cc2cccc(C(=O)O)c2OB1O | < 0.3 µg/mL | > 20 µg/mL | > 20 µg/mL | > 20 µg/mL | 2.5 µg/mL | > 20 µg/mL | 0.6 µg/mL |  | 
O=C(O)c1c(OC2COC2)ccc2c1OB(O)[C@@H](Sc1nncs1)C2 | 20 µg/mL | > 20 µg/mL | > 20 µg/mL | > 20 µg/mL | > 20 µg/mL | > 20 µg/mL | > 20 µg/mL | > 20 µg/mL | > 20 µg/mL
O=C(O)c1cccc2c1OB(O)[C@@H](Sc1nccs1)C2 | 2.5 µg/mL | > 20 µg/mL | 10 µg/mL | > 20 µg/mL | > 20 µg/mL | > 20 µg/mL | 0.3 µg/mL |  | 
O=C(O)c1cccc2c1OB(O)[C@@H](Sc1ccccn1)C2 | > 20 µg/mL | > 10 µg/mL | > 10 µg/mL | > 10 µg/mL | > 10 µg/mL | > 10 µg/mL | > 20 µg/mL |  | 
N=C(N)S[C@H]1Cc2cccc(C(=O)O)c2OB1O | > 20 µg/mL | > 20 µg/mL | > 20 µg/mL | > 20 µg/mL | > 20 µg/mL | > 20 µg/mL | > 20 µg/mL |  | 
O=C(O)c1cccc2c1OB(O)[C@@H](OC1CNC1)C2 | 0.6 µg/mL | > 20 µg/mL | > 20 µg/mL | 2.5 µg/mL | > 20 µg/mL | > 20 µg/mL | 0.6 µg/mL |  | 
N#CCOc1ccc2c(c1C(=O)O)OB(O)[C@@H](Sc1nncs1)C2 | 2.5 µg/mL | > 20 µg/mL | 10 µg/mL | > 20 µg/mL | 20 µg/mL | 20 µg/mL | 2.5 µg/mL | > 20 µg/mL | > 20 µg/mL
NC(=O)CCS[C@H]1Cc2cccc(C(=O)O)c2OB1O | 1.25 µg/mL | > 20 µg/mL | > 20 µg/mL | > 20 µg/mL | 5 µg/mL | > 20 µg/mL | 1.25 µg/mL |  | 
O=C(O)c1cccc2c1OB(O)[C@@H](Sc1ncc[nH]1)C2 | > 20 µg/mL | > 10 µg/mL | > 10 µg/mL | > 10 µg/mL | > 10 µg/mL | > 10 µg/mL | > 20 µg/mL |  | 
O=C(O)c1cccc2c1OB(O)[C@@H](Sc1cccnc1)C2 | 1.25 µg/mL | > 20 µg/mL | > 20 µg/mL | > 20 µg/mL | > 20 µg/mL | > 20 µg/mL | 2.5 µg/mL |  | 
O=C(O)c1c(OCc2nncs2)ccc2c1OB(O)[C@@H](Sc1nncs1)C2 | 0.3 µg/mL | 20 µg/mL | 5 µg/mL | > 20 µg/mL | 20 µg/mL | 5 µg/mL | 2.5 µg/mL | > 20 µg/mL | 2.5 µg/mL
COCCOc1ccc2c(c1C(=O)O)OB(O)[C@@H](Sc1nncs1)C2 | 0.16 µg/mL | 20 µg/mL | 10 µg/mL | > 20 µg/mL | 20 µg/mL | > 20 µg/mL | 0.6 µg/mL | > 20 µg/mL | 1.25 µg/mL
O=C(O)c1cccc2c1OB(O)[C@@H](Sc1nnc[nH]1)C2 | 2.5 µg/mL | 5 µg/mL | > 40 µg/mL | > 40 µg/mL | > 40 µg/mL | > 40 µg/mL | < 0.3 µg/mL |  | 
